How the values were obtained:
[1] = molecular target: T1, CraCRYΔCTE (CraCRY; animal-like cryptochrome, aCRY) (Chlamydomonas reinhardtii, UniProt A8J8W0); assay: serial femtosecond crystallography (room temperature); conditions: crystals reduced with 50 mM DTT and white light, anaerobic; FAD-binding site
T1 construct: gene CHLRE_06g278251v5; C-terminal extension E496-E595 replaced by a His tag; pET28a-based; E. coli BL21(DE3); PHR domain plus helix α22

[2] = molecular target: T2, CraCRYΔCTE (CraCRY; animal-like cryptochrome, aCRY) (Chlamydomonas reinhardtii, UniProt A8J8W0, E384Q); assay: steady-state photoreduction, UV/Vis absorption; assay type: binding; conditions: white light on ice, aerobic, no external reductant; 20 mM phosphate, 500 mM NaCl, 10% glycerol, pH 5.5-8.5
T2 construct: gene CHLRE_06g278251v5; C-terminal extension E496-E595 replaced by a His tag; pET28a-based; E. coli BL21(DE3); PHR domain plus helix α22
T2 sequence (A8J8W0 entry or part of it E384Q): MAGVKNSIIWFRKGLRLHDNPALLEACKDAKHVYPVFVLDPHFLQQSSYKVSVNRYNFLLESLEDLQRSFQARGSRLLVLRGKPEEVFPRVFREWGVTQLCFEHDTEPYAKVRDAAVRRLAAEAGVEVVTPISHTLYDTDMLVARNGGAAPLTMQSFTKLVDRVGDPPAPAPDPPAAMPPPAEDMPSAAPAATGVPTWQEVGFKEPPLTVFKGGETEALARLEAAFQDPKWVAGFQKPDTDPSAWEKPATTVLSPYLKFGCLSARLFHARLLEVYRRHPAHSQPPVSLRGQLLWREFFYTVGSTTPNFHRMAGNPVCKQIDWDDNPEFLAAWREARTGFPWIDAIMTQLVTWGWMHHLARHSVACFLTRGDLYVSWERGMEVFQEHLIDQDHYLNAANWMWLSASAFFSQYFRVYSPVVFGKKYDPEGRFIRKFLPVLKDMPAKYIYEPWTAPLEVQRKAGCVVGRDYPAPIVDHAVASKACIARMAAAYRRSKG

T1 sequence (A8J8W0 entry or part of it, stated change not applied): as the sequence (A8J8W0 entry or part of it E384Q) above, with Q384E counted along it

Structure (SMILES)	serial femtosecond crystallography (room temperature) [1]	steady-state photoreduction, UV/Vis absorption [2]
Cc1cc2c(cc1C)N(C[C@H](O)[C@H](O)[C@H](O)COP(=O)(O)OP(=O)(O)OC[C@H]1O[C@@H](n3cnc4c(N)ncnc43)[C@H](O)[C@@H]1O)c1[nH]c(=O)[nH]c(=O)c1N2 [FADH^−]	CraCRY structures in FADox and FADH^− states at room temperature are almost identical	–
Cc1cc2nc3c(=O)[nH]c(=O)nc-3n(C[C@H](O)[C@H](O)[C@H](O)COP(=O)(O)OP(=O)(O)OC[C@H]3O[C@@H](n4cnc5c(N)ncnc54)[C@H](O)[C@@H]3O)c2cc1C [FADox, flavin adenine dinucleotide]	–	E384Q is inefficient to generate the neutral radical FADH^• at physiological pH

Reference: publication PMC12083526, “Capturing structural intermediates in an animal-like cryptochrome photoreceptor by time-resolved crystallography” (Science Advances, 2025)
